What was measured:
Type in all cases: in vivo
[1] = tested on: velvetleaf (Abutilon theophrasti); assay: Test A pre-/postemergence; conditions: 0 to 10 scale
Protocol: (§1) Seeds of barnyardgrass (Echinochloa crus-galli), crabgrass (Digitaria spp.), morningglory (Ipomoea spp.), and velvetleaf (Abutilon theophrasti) were planted into a sandy loam soil and treated preemergence by soil drench with test chemicals formulated in a non-phytotoxic solvent mixture which includes a surfactant. At the same time, these crop and weed species were also treated postemergence sprayed to runoff, with test chemicals formulated in the same manner. Plants ranged in height from two to eighteen cm and were in the one to two leaf stage for the postemergence treatment. Treated plants and untreated controls were maintained in a greenhouse for approximately eleven days, after which all treated plants were compared to untreated controls and visually evaluated for injury. Plant response ratings, summarized in Table A, are based on a 0 to 10 scale where 0 is no effect and 10 is complete control. A dash (−) response means no test results.

[2] = tested on: crabgrass (Digitaria spp.); assay: Test A pre-/postemergence; conditions: 0 to 10 scale
Protocol: as §1

[3] = tested on: morningglory (Ipomoea spp.); assay: Test A pre-/postemergence; conditions: 0 to 10 scale
Protocol: as §1

[4] = tested on: barnyardgrass (Echinochloa crus-galli); assay: Test A pre-/postemergence; conditions: 0 to 10 scale
Protocol: as §1

soybean (Glycine max) = assay: Test B pre-/postemergence; set-up: key: 0 is no effect; 10 is complete control
Summary of the method: (§2)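 Response scores run from 0, meaning no effect, to 10, meaning complete control, assigned by eye relative to controls twelve to sixteen days after spraying. Treatment was both preemergence on planted seed and postemergence on plants at the 1- to 4-leaf stage.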

rape (Brassica napus) = assay: Test B pre-/postemergence; set-up: key: 0 is no effect; 10 is complete control
Summary of the method: as §2

rice (Oryza sativa) = assay: Test B flood test; set-up: key: 0 is no effect; 10 is complete control
Summary of the method: (§3)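 Each value is a visual injury score relative to controls, with 10 meaning complete control and 0 no effect. Evaluation took place twelve to sixteen days after the 2-leaf-stage plants were treated and kept in the greenhouse.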

[5] = tested on: bamyardgrass (Echinochloa crus-galli); assay: Test B flood test; set-up: key: 0 is no effect; 10 is complete control
Summary of the method: as §3

[6] = tested on: smallflower flatsedge (Cyperus difformis); assay: Test B flood test; set-up: key: 0 is no effect; 10 is complete control
Summary of the method: as §3

[7] = tested on: duck salad (Heteranthera limosa); assay: Test B flood test; set-up: key: 0 is no effect; 10 is complete control
Summary of the method: as §3

[8] = PRE SOIL DRENCH, Rate 2000 g/ha
[9] = postemergence SPRAYED TO RUNOFF, Rate 1000 g/ha
[10] = Rate 62 g/ha, Postemergence (flood test)
[11] = Rate 125 g/ha, Postemergence, flood test
[12] = Rate 250 g/ha, Postemergence (flood test species)
[13] = Rate 500 g/ha, Postemergence (flood test species)

Q: Which results are given for `Cc1cnc(-c2ccc(Cl)cc2)nc1Cn1ccc(C(F)(F)F)n1` [Compound 6]?
A: Plant response rating, Velvetleaf [1, 8]: 8; Plant response rating, Velvetleaf [1, 9]: 9; Plant response rating, Crabgrass [2, 8]: 9; Plant response rating, Crabgrass [2, 9]: 9; Plant response rating, Morningglory [3, 8]: 5; Plant response rating, Morningglory [3, 9]: 6; Plant response rating, Barnyardgrass [4, 8]: 8; Plant response rating, Barnyardgrass [4, 9]: 8; Plant response rating, Soybean (soybean (Glycine max); Rate 62 g/ha, Postemergence): 6; Soybean plant response rating (soybean (Glycine max); Rate 62 g/ha, Preemergence): 0; Plant response rating, Soybean (soybean (Glycine max); Rate 125 g/ha, Postemergence): 6; Soybean plant response rating (soybean (Glycine max); Rate 125 g/ha, Preemergence): 0; Plant response rating, Soybean (soybean (Glycine max); Rate 250 g/ha, Postemergence): 6; Plant response rating, Soybean (soybean (Glycine max); Rate 250 g/ha, Preemergence): 0; Plant response rating, Soybean (soybean (Glycine max); Rate 500 g/ha, Postemergence): 6; Plant response rating, Soybean (soybean (Glycine max); Rate 500 g/ha, Preemergence): 0; Plant response rating, Rape (rape (Brassica napus); Rate 62 g/ha, Postemergence): 8; Rape plant response rating (rape (Brassica napus); Rate 62 g/ha, Preemergence): 0; Plant response rating, Rape (rape (Brassica napus); Rate 125 g/ha, Postemergence): 8; Rape plant response rating (rape (Brassica napus); Rate 125 g/ha, Preemergence): 2; Plant response rating, Rape (rape (Brassica napus); Rate 250 g/ha, Postemergence): 8; Plant response rating, Rape (rape (Brassica napus); Rate 250 g/ha, Preemergence): 4; Plant response rating, Rape (rape (Brassica napus); Rate 500 g/ha, Postemergence): 8; Plant response rating, Rape (rape (Brassica napus); Rate 500 g/ha, Preemergence): 7; Plant response rating, Rice (rice (Oryza sativa); [10]): 1; Plant response rating, Rice (rice (Oryza sativa); [11]): 2; Plant response rating, Rice (rice (Oryza sativa); [12]): 2; Plant response rating, Rice (rice (Oryza sativa); [13]): 3; Plant response rating, Barnyardgrass [5, 10]: 0; Plant response rating, Barnyardgrass [5, 11]: 1; Plant response rating, Barnyardgrass [5, 12]: 2; Plant response rating, Barnyardgrass [5, 13]: 3; Plant response rating, S. Flatsedge [6, 10]: 3; Plant response rating, S. Flatsedge [6, 11]: 5; Plant response rating, S. Flatsedge [6, 12]: 7; Plant response rating, S. Flatsedge [6, 13]: 7; Plant response rating, Ducksalad [7, 10]: 0; Plant response rating, Ducksalad [7, 11]: 0; Plant response rating, Ducksalad [7, 12]: 0; Plant response rating, Ducksalad [7, 13]: 6

— patent publication US6525001B1, “Substituted pyrimidine and pyridine herbicides” (Mid-American Commercialization Corporation, priority 1997, dated 2003)
